Experimental data as given in PubChem BioAssay (NCI).
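Values below derive from 48-hour exposures of cells grown in 96-well plates, with endpoints linearly interpolated between the two concentrations bracketing the appropriate inhibition level. GI50: concentration for 50% inhibition of growth. The concentration for full growth arrest is given as TGI.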

Columns and labels:
Experiment in all cases: inhibition of tumour cell growth, NCI panel, 48 h; in the data active means GI50 below about 0.43 µM; inactive means the rest
[1] = system: NCI-H23 lung
[2] = system: CAKI-1 renal
[3] = system: TK-10 renal
[4] = system: HCT-15 colon
[5] = system: KM12 colon
[6] = system: HOP-92 NSCLC
[7] = system: OVCAR-4 ovarian
[8] = system: SK-MEL-28 melanoma
[9] = system: SF-268 CNS
[10] = system: RPMI-8226 leukemia
[11] = system: SK-OV-3 ovarian
[12] = system: A549 NSCLC
[13] = system: EKVX NSCLC
[14] = system: BT-549 breast
[15] = system: MCF7 breast
[16] = system: DU-145 prostate
[17] = system: MOLT-4 leukemia
[18] = system: SNB-75 CNS
[19] = system: UACC-257 melanoma
[20] = system: SW-620 colon
[21] = system: MALME-3M melanoma
[22] = system: T-47D breast
[23] = system: LOX IMVI melanoma
[24] = system: A498 renal
[25] = system: HL-60(TB) leukemia
[26] = system: HT29 colon
[27] = system: MDA-MB-231 breast
[28] = system: OVCAR-8 ovarian
[29] = system: ACHN renal
[30] = system: OVCAR-5 ovarian
[31] = system: NCI-H226 lung
[32] = system: SF-539 CNS
[33] = system: HS 578T breast
[34] = system: UO-31 renal
[35] = system: PC-3 prostate
[36] = system: U251 CNS
[37] = system: CCRF-CEM leukemia
[38] = system: SN12C renal
[39] = system: M14 melanoma
[40] = system: COLO 205 colon
[41] = system: OVCAR-3 ovarian
[42] = system: MDA-MB-435
[43] = system: NCI-H460 lung
[44] = system: HCC-2998 colon
[45] = system: UACC-62 melanoma
[46] = system: NCI-H522 lung
[47] = system: 786-0 renal
[48] = system: NCI/ADR-RES ovarian
[49] = system: SK-MEL-5 melanoma
[50] = system: RXF 393 renal
[51] = system: SNB-19 CNS
[52] = system: K-562 leukemia
[53] = system: HCT-116 colon
[54] = system: HOP-62 NSCLC
[55] = system: SF-295 CNS
[56] = system: SK-MEL-2 melanoma
[57] = system: IGROV1 ovarian
[58] = system: SR leukemia

Fc1ccc(-c2cc(-c3cn[nH]c3-c3ccccn3)ccn2)cc1
inactive: GI50 [1] > 12.8 µM | GI50 [2] > 25 µM | GI50 [3] > 25 µM | GI50 [4] > 25 µM | GI50 [5] > 25 µM | GI50 [6] 24.6 µM | GI50 [7] > 25 µM | GI50 [8] > 25 µM | GI50 [9] > 25 µM | GI50 [10] > 25 µM | GI50 [11] > 25 µM | GI50 [12] > 25 µM | GI50 [13] > 25 µM | GI50 [14] > 25 µM | GI50 [15] > 25 µM | GI50 [16] > 25 µM | GI50 [17] > 25 µM | GI50 [18] > 25 µM | GI50 [19] > 25 µM | GI50 [20] > 25 µM | GI50 [21] > 25 µM | GI50 [22] > 25 µM | GI50 [23] > 25 µM | GI50 [24] 24.8 µM | GI50 [25] > 25 µM | GI50 [26] > 25 µM | GI50 [27] > 25 µM | GI50 [28] > 25 µM | GI50 [29] > 25 µM | GI50 [30] > 25 µM | GI50 [31] > 25 µM | GI50 [32] > 25 µM | GI50 [33] > 25 µM | GI50 [34] > 25 µM | GI50 [35] > 25 µM | GI50 [36] > 25 µM | GI50 [37] > 25 µM | GI50 [38] > 25 µM | GI50 [39] > 17 µM | GI50 [40] > 25 µM | GI50 [41] > 25 µM | GI50 [42] > 25 µM | GI50 [43] 24.7 µM | GI50 [44] > 25 µM | GI50 [45] > 25 µM | GI50 [46] > 25 µM | GI50 [47] > 22.6 µM | GI50 [48] > 19.5 µM | GI50 [49] > 25 µM | GI50 [50] > 25 µM | GI50 [51] > 25 µM | GI50 [52] > 25 µM | GI50 [53] > 17.3 µM | GI50 [54] > 25 µM | GI50 [55] > 25 µM | GI50 [56] > 25 µM | GI50 [57] > 25 µM
> 25 µM: TGI [1] | TGI [2] | TGI [3] | TGI [4] | TGI [5] | TGI [6] | TGI [7] | TGI [8] | TGI [9] | TGI [10] | TGI [11] | TGI [12] | TGI [13] | TGI [14] | TGI [15] | TGI [16] | TGI [17] | TGI [18] | TGI [19] | TGI [20] | TGI [21] | TGI [22] | TGI [23] | TGI [24] | TGI [25] | TGI [26] | TGI [27] | TGI [28] | TGI [29] | TGI [30] | TGI [31] | TGI [32] | TGI [33] | TGI [34] | TGI [35] | TGI [36] | TGI [37] | TGI [38] | TGI [39] | TGI [40] | TGI [41] | TGI [42] | TGI [43] | TGI [44] | TGI [45] | TGI [46] | TGI [47] | TGI [48] | TGI [49] | TGI [50] | TGI [51] | TGI [52] | TGI [53] | TGI [54] | TGI [55] | TGI [56] | TGI [57]

COc1ccc(-c2nc(/C=N/Nc3cc(C)nc4ccc(Br)cc34)c(C)o2)cc1
3.9 µM: TGI [56]
3.22 µM: TGI [47]
3.47 µM: TGI [25]
3.44 µM: TGI [13]
inactive: GI50 [2] 1.62 µM | GI50 [3] 1.97 µM | GI50 [4] 0.902 µM | GI50 [5] 1.8 µM | GI50 [6] 1.45 µM | GI50 [7] 1.72 µM | GI50 [8] 1.79 µM | GI50 [11] 1.7 µM | GI50 [12] 1.74 µM | GI50 [13] 1.93 µM | GI50 [14] 1.67 µM | GI50 [16] 1.75 µM | GI50 [18] 1.68 µM | GI50 [19] 1.94 µM | GI50 [21] 1.98 µM | GI50 [22] 1.78 µM | GI50 [24] 1.49 µM | GI50 [25] 1.49 µM | GI50 [26] 1.62 µM | GI50 [27] 1.93 µM | GI50 [28] 1.79 µM | GI50 [29] 1.73 µM | GI50 [30] 1.95 µM | GI50 [31] 2.09 µM | GI50 [32] 1.83 µM | GI50 [33] 2.02 µM | GI50 [34] 1.52 µM | GI50 [35] 1.67 µM | GI50 [36] 1.86 µM | GI50 [37] 0.732 µM | GI50 [38] 1.93 µM | GI50 [39] 1.78 µM | GI50 [40] 1.67 µM | GI50 [41] 1.84 µM | GI50 [42] 1.68 µM | GI50 [43] 1.93 µM | GI50 [44] 1.96 µM | GI50 [45] 1.76 µM | GI50 [46] 1.8 µM | GI50 [47] 1.71 µM | GI50 [48] 2.03 µM | GI50 [49] 1.78 µM | GI50 [50] 1.44 µM | GI50 [51] 1.95 µM | GI50 [53] 1.84 µM | GI50 [54] 1.67 µM | GI50 [55] 1.9 µM | GI50 [56] 1.99 µM | GI50 [57] 1.72 µM
2.33 µM: TGI [4]
3.73 µM: TGI [43] | TGI [51]
2.89 µM: TGI [24] | TGI [34]
3.69 µM: TGI [22]
3.36 µM: TGI [53] | TGI [57]
2.93 µM: TGI [50]
3.11 µM: TGI [14] | TGI [29]
3.1 µM: TGI [42]
active: GI50 [20] 0.415 µM | GI50 [58] 0.315 µM
4.1 µM: TGI [33]
3.23 µM: TGI [8]
3.06 µM: TGI [6]
1.56 µM: TGI [20]
3.31 µM: TGI [7]
3.24 µM: TGI [26]
4.64 µM: TGI [31]
3.67 µM: TGI [21] | TGI [46]
3.25 µM: TGI [54]
3.86 µM: TGI [28]
3.2 µM: TGI [35]
3.49 µM: TGI [55]
3.34 µM: TGI [16] | TGI [45]
3.28 µM: TGI [18]
2.98 µM: TGI [2]
3.12 µM: TGI [11]
3.65 µM: TGI [44]
3.39 µM: TGI [36] | TGI [39]
3.18 µM: TGI [49]
3.35 µM: TGI [40]
3.41 µM: TGI [30] | TGI [41]
1.59 µM: TGI [58]
3.57 µM: TGI [19]
3.45 µM: TGI [3]
4.48 µM: TGI [48]
3.38 µM: TGI [37]
3.33 µM: TGI [12]
3.72 µM: TGI [27]
3.3 µM: TGI [32]
3.62 µM: TGI [5] | TGI [38]
